Measurements: patent US7829665B2 (priority 2005, dated 2010)

What follows are molecules tested against T1, full-length NS3/NS4A-2 (HCV NS3 protease) (Hepatitis C virus genotype 1a, UniProt P27958) (assay: NS3-NS4 protease assay / NS3 inhibition assay (RETS1 substrate, fluorescence kinetic read)). Details: Table 22; read-out: NS3-NS4 IC50.
T1 construct: Recombinant E. coli or Baculovirus full-length NS3 was diluted to 3.33 μM with assay buffer; made in house; host or cells: E. coli or baculovirus (BV) expression system
T1 sequence (P27958 1027-1657): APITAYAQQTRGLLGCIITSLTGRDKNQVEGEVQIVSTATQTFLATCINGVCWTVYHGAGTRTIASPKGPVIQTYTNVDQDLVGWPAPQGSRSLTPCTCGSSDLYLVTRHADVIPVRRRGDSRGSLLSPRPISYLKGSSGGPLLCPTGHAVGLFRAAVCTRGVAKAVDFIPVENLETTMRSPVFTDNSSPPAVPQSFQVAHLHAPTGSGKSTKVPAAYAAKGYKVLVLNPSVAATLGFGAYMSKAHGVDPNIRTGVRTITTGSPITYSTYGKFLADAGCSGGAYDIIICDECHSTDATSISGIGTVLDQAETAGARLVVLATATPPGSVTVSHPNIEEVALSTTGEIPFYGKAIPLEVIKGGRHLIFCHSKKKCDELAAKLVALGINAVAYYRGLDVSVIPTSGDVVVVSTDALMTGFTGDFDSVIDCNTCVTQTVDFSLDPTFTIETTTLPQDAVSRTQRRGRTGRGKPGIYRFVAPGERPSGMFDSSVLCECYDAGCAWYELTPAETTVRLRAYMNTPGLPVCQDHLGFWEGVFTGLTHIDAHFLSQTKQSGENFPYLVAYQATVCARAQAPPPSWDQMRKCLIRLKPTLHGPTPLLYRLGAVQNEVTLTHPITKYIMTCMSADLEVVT
Assay type: biochemical
Method: NS3 complex formation with NS4A-2.
Recombinant E. coli or Baculovirus full-length NS3 was diluted to 3.33 μM with assay buffer and transferred material to an eppendorf tube and place in water bath in 4° C. refrigerator. The appropriate amount of NS4A-2 to 8.3 mM in assay buffer was added to equal the volume of NS3 in step 2.1.1 (conversion factor—3.8 mg/272 μL assay buffer). The material was transferred to an eppendorf tube and place in water bath in 4° C. refrigerator.
After equilibration to 4° C., equal volumes of NS3 and NS4A-2 solutions were combined in an eppendorf tube, mix gently with a manual pipettor, and incubate mixture for 15 minutes in the 4° C. water bath. Final concentrations in the mixture are 1.67 μM NS3, 4.15 mM NS4A-2 (2485-fold molar excess NS4A-2).
After 15 minutes at 4° C., the NS3/NS4A-2 eppendorf tube was removed and place it in a room temperature water bath for 10 minutes. NS3/NS4A-2 was alliquoted at appropriate volumes and store at −80° C. (E. coli NS3 run at 2 nM in assay, aliquot at 25 μL. BV NS3 run at 3 nM in assay, aliquot at 30 μL).
Sample compounds were dissolved to 10 mM in DMSO then diluted to 2.5 mM (1:4) in DMSO. Typically, compounds were added to an assay plate at 2.5 mM concentration, yielding upon dilution a starting concentration of 50 microM in the assay inhibition curve. Compounds were serial diluted in assay buffer to provide test solutions at lower concentrations.
The E. coli. NS3/NS4A-2 was diluted to 4 nM NS3 (1:417.5 of 1.67 μM stock−18 μL 1.67 μM stock+7497 μL assay buffer). The BV NS3/NS4A-2 was diluted to 6 nM NS3 (1:278.3 of 1.67 μM stock−24 μL 1.67 μM stock+6655 μL assay buffer). Using the manual multichannel pipettor, careful not to introduce bubbles into the plate, add 50 μL assay buffer to wells A01-H01 of a black Costar 96-well polypropylene storage plate.
Using the manual multichannel pipettor, careful not to introduce bubbles into the plate, add 50 μL of diluted NS3/NS4A-2 from step 2.2.6 to wells A02-H12 of plate in step 2.2.7. Using the manual multichannel pipettor, careful not to introduce bubbles into the plate, transfer 25 μL of the wells in drug dilution plate in step 2.2.5 to corresponding wells in assay plate in step 2.2.8. Change tips on multichannel pipettor for each row of compounds transferred. Using the manual multichannel pipettor, careful not to introduce bubbles into the plate, mix the wells from the assay plate in step 2.2.9 by aspirating and dispensing 35 μL of the 75 μL in each well five times. Change tips on multichannel pipettor for each row of wells mixed. Cover plate with a polystyrene plate lid and pre-incubate the plate from step 2.2.10 containing NS3 protease and sample compounds 10 minutes at room temperature. While plate from step 2.2.11 is pre-incubating, dilute RETS1 substrate in a 15 mL polypropylene centrifuge tube. Dilute RETS1 substrate to 8 μM (1:80.75 of 646 μM stock−65 μL 646 μM stock+5184 μL assay buffer).
After the plate in step is done pre-incubating, and using the manual multichannel, add 25 μL of substrate to all wells on the plate. Quickly mix the plate as in step 2.2.10, mixing 65 μL of the 100 μL in the wells.
Read the plate in kinetic mode on the Molecular Devices SpectraMax Gemini XS plate reader. Reader settings: Read time: 30 minutes, Interval: 36 seconds, Reads: 51, Excitation λ: 335 nm, Emission λ: 495 nm, cutoff: 475 nm, Automix: off, Calibrate: once, PMT: high, Reads/well: 6, Vmax pts: 21 or 28/51 depending on length of linearity of reaction
IC50 s are determined using a four parameter curve fit equation, and converted to Ki's using the following Km's: • Full-length E. coli NS3—2.03 μM • Full-length BV NS3—1.74 μM where Ki=IC50/(1+[S]/Km)) • Quantitation by ELISA of the selectable marker protein, Neomycin phosphotransferase II (NPTII) in the HCV Sub-Genomic Replicon, GS4.3

`COC(=O)c1cccc(CNC(=O)[C@@]23C[C@H]2/C=C\CCCCC[C@H](NC(=O)OC(C)(C)C)C(=O)N2CCC[C@H]2C(=O)N3)c1` [Compound 2321] and `CC(C)(C)OC(=O)N[C@H]1CCCCC/C=C\[C@@H]2C[C@@]2(C(=O)NCC#N)NC(=O)[C@@H]2CCCN2C1=O` [Compound 2322] cannot be ordered by IC50: less than 1 µM for the first, less than 0.1 µM for the second.

Same assay, conditions: recombinant E. coli or Baculovirus full-length NS3 with NS4A-2; read-out: NS3-NS4 IC50

`CC(C)(C)OC(=O)N[C@H]1CCCCC/C=C\[C@@H]2C[C@@]2(C(=O)NS(=O)(=O)c2cccc(Cl)c2)NC(=O)[C@@H]2CCCN2C1=O` [Compound 2110] and `CC(C)(C)OC(=O)N[C@H]1CCCCC/C=C\[C@@H]2C[C@@]2(C(=O)NS(=O)(=O)c2cccc(C#N)c2)NC(=O)[C@@H]2CCCN2C1=O` [Compound 2152] cannot be ordered by IC50: less than 10 µM for the first, less than 10 µM for the second.

`CC(C)(C)OC(=O)N[C@H]1CCCCC/C=C\[C@@H]2C[C@@]2(C(=O)NS(=O)(=O)NCc2ccncc2)NC(=O)[C@@H]2CCCN2C1=O` [Compound 426] and `CC(C)(C)OC(=O)N[C@H]1CCCCC/C=C\[C@@H]2C[C@@]2(C(=O)NS(=O)(=O)Nc2ccncc2)NC(=O)[C@@H]2CCCN2C1=O` [Compound 407] cannot be ordered by IC50: greater than 10 µM for the first, greater than 10 µM for the second.

`CC(C)(C)OC(=O)N[C@H]1CCCCC/C=C\[C@@H]2C[C@@]2(C(=O)NS(=O)(=O)c2ccccc2Br)NC(=O)[C@@H]2CCCN2C1=O` [Compound 2111] and `CC(C)(C)OC(=O)N[C@H]1CCCCC/C=C\[C@@H]2C[C@@]2(C(=O)NS(=O)(=O)Cc2ccccc2)NC(=O)[C@@H]2CCCN2C1=O` [Compound 2135] cannot be ordered by IC50: less than 10 µM for the first, less than 1 µM for the second.

`CS(=O)(=O)NC(=O)[C@@]12C[C@H]1/C=C\CCCCC[C@H](NC(=O)OC1CCCC1)C(=O)N1C[C@H](OC(=O)N3CCc4ccccc4C3)C[C@H]1C(=O)N2` [Compound 119] and `COc1cccc(S(=O)(=O)NC(=O)[C@@]23C[C@H]2/C=C\CCCCC[C@H](NC(=O)OC2CCCC2)C(=O)N2C[C@H](OC(=O)N4CCc5ccccc5C4)C[C@H]2C(=O)N3)c1` [Compound 188] cannot be ordered by IC50: less than 0.1 µM for the first, less than 0.1 µM for the second.

Going from `CC[C@@H]1C[C@H]2C(=O)N[C@]3(C(=O)NS(=O)(=O)C4CC4)C[C@H]3/C=C\CCCCC[C@H](NC(=O)OC(C)(C)C)C(=O)N2C1` [Compound 2145] to `CC(C)(C)OC(=O)N[C@H]1CCCCC/C=C\[C@@H]2C[C@@]2(C(=O)NS(=O)(=O)C2CCCC2)NC(=O)[C@@H]2CCCN2C1=O` [Compound 2120], the IC50 falls from greater than 10 µM to less than 1 µM. The second is the more potent here.

Compared with `CC(C)(C)OC(=O)N[C@H]1CCCCC/C=C\[C@@H]2C[C@@]2(C(=O)NS(=O)(=O)Nc2ccc(Cl)cc2Cl)NC(=O)[C@@H]2CCCN2C1=O` [Compound 410], `COc1ccccc1NS(=O)(=O)NC(=O)[C@@]12C[C@H]1/C=C\CCCCC[C@H](NC(=O)OC(C)(C)C)C(=O)N1CCC[C@H]1C(=O)N2` [Compound 2236] is lower in IC50: greater than 10 µM for the first, less than 1 µM for the second. The second is the more potent here.

First: CC(C)(C)OC(=O)N[C@H]1CCCCC/C=C\[C@@H]2C[C@@]2(C(=O)O)NC(=O)C2Cc3ccccc3CN2C1=O (stereo partly drawn) [Compound 2001, (1aS,9S,19aR,Z)-9-(tert-Butoxycarbonyl)-10,18-dioxo-1a,4,5,6,7,8,9,10,12,17,17a,18,19,19a-tetradecahydro-1H-11,14-diaza-bicyclo[13.1.0]hexadeca-1(15), 2-dieno[11,12-b]isoquinoline-19a-carboxylic acid]
Second: CC(C)(C)OC(=O)N[C@H]1CCCCC/C=C\[C@@H]2C[C@@]2(C(=O)NS(=O)(=O)C2CC2)NC(=O)C2Cc3ccccc3CN2C1=O (stereo partly drawn) [Compound 2009, tert-Butyl (1aS,9S,19aR,Z)-19a-(cyclopropylsulfonylcarbamoyl)-10,18-dioxo-1a,4,5,6,7,8,9,10,12,17,17a,18,19,19a-tetradecahydro-1H-11,14-diaza-bicyclo[13.1.0]hexadeca-1(15),2-dieno[11,12-b]isoquinolin-9-ylcarbamate]
The IC50 of the first is higher: greater than 10 µM for the first, less than 10 µM for the second. The second is the more potent here.

`CC(C)(C)OC(=O)NC1CCCCCCCC=CC2CC2(C(=O)NS(=O)(=O)c2ccc([N+](=O)[O-])cc2)NC(=O)C2CCCN2C1=O` (centres unmarked) [Compound 2102] and `CN(c1ccc(F)cc1)S(=O)(=O)NC(=O)[C@@]12C[C@H]1/C=C\CCCCC[C@H](NC(=O)OC(C)(C)C)C(=O)N1CCC[C@H]1C(=O)N2` [Compound 2229] cannot be ordered by IC50: less than 10 µM for the first, less than 10 µM for the second.

Going from `CC(C)(C)OC(=O)N[C@H]1CCCCC/C=C\[C@@H]2C[C@@]2(C(=O)NS(=O)(=O)NCCc2cccc(Cl)c2)NC(=O)[C@@H]2CCCN2C1=O` [Compound 411] to `CC(C)(C)OC(=O)N[C@H]1CCCCC/C=C\[C@@H]2C[C@@]2(C(=O)NS(=O)(=O)NCCc2ccc(Cl)cc2)NC(=O)[C@@H]2CCCN2C1=O` [Compound 403], the IC50 falls from greater than 10 µM to less than 10 µM.

Compared with `CC(C)(C)OC(=O)N[C@H]1CCCCC/C=C\[C@@H]2C[C@@]2(C(=O)NS(=O)(=O)N2CCCCC2c2cccnc2)NC(=O)[C@@H]2CCCN2C1=O` (some centres unmarked) [Compound 2222], `CC(C)(C)OC(=O)N[C@H]1CCCCC/C=C\[C@@H]2C[C@@]2(C(=O)NS(=O)(=O)Nc2cccnc2)NC(=O)[C@@H]2CCCN2C1=O` [Compound 406] is higher in IC50: less than 1 µM for the first, greater than 10 µM for the second.

First: CC(C)(C)OC(=O)N[C@H]1CCCCC/C=C\[C@@H]2C[C@@]2(C(=O)NCC(O)(C(F)(F)F)C(F)(F)F)NC(=O)[C@@H]2CCCN2C1=O [Compound 503]
Second: CC(C)(C)OC(=O)N[C@H]1CCCCC/C=C\[C@@H]2C[C@@]2(C(=O)NS(=O)(=O)NC2(C#N)CC2)NC(=O)[C@@H]2CCCN2C1=O [Compound 2212]
The IC50 of the first is higher: greater than 10 µM for the first, less than 1 µM for the second. The second is the more potent here.

Going from `CC(C)(C)OC(=O)N[C@H]1CCCCC/C=C\[C@@H]2C[C@@]2(C(=O)NS(=O)(=O)c2cccc3c(Cl)cccc23)NC(=O)[C@@H]2CCCN2C1=O` [Compound 309] to `CC(C)(C)OC(=O)N[C@H]1CCCCC/C=C\[C@@H]2C[C@@]2(C(=O)NS(=O)(=O)NCCc2cccc3ccccc23)NC(=O)[C@@H]2CCCN2C1=O` [Compound 422], the IC50 rises from less than 10 µM to greater than 10 µM.

`CC(C)(C)OC(=O)N[C@H]1CCCCC/C=C\[C@@H]2C[C@@]2(C(=O)NS(=O)(=O)N(CCC#N)C2CC2)NC(=O)[C@@H]2CCCN2C1=O` [Compound 2210] and `CN1CCC(N(C2CC2)S(=O)(=O)NC(=O)[C@@]23C[C@H]2/C=C\CCCCC[C@H](NC(=O)OC(C)(C)C)C(=O)N2CCC[C@H]2C(=O)N3)CC1` [Compound 2211] cannot be ordered by IC50: less than 1 µM for the first, less than 1 µM for the second.

`O=C(N[C@H]1CCCCC/C=C\[C@@H]2C[C@@]2(C(=O)O)NC(=O)C2Cc3cc(Oc4cccc(Cl)c4)ccc3CN2C1=O)OC1CCCC1` (some centres unmarked) [Compound 2002, (Z)-15-(3-chlorophenoxy)-9-(cyclopentyloxycarbonyl)-10,18-dioxo-1a,4,5,6,7,8,9,10,12,17,17a,18,19,19a-tetradecahydro-1H-11,14-diaza-bicyclo[13.1.0]hexadeca-1(16), 2-dieno[11,12-b]isoquinoline-19a-carboxylic acid] and `O=C(N[C@H]1CCC(F)(F)CC/C=C\[C@@H]2C[C@@]2(C(=O)NS(=O)(=O)C2CC2)NC(=O)[C@@H]2C[C@@H](OC(=O)N3Cc4cccc(F)c4C3)CN2C1=O)OC1CCCC1` [Compound 1005] cannot be ordered by IC50: less than 10 µM for the first, less than 0.1 µM for the second.

`COc1c(C(=O)O)csc1S(=O)(=O)NC(=O)[C@@]12C[C@H]1/C=C\CCCCC[C@H](NC(=O)OC(C)(C)C)C(=O)N1CCC[C@H]1C(=O)N2` [Compound 311] and `CN(Cc1ccccc1)S(=O)(=O)NC(=O)[C@@]12C[C@H]1/C=C\CCCCC[C@H](NC(=O)OC(C)(C)C)C(=O)N1CCC[C@H]1C(=O)N2` [Compound 417] cannot be ordered by IC50: less than 10 µM for the first, less than 10 µM for the second.
